Laboratory results reported in patent publication US20100087534A1, “Use of a Photosensitizing Agent in the Treatment or Prevention of an Inflammation-Associated Disorder in the Gastrointestinal Tract of a Mammal” (priority 2005, published 2010).

How the values were obtained:
[1] = system: SCID mice with TH1-mediated Crohn-like colitis after transfer of CD4+CD45RBhigh T-cells; experiment: Histological analysis of colon after low dose PDT in transfer colitis (Example 2); format: in vivo
Experimental: Evolution of colitis in SCID mice was monitored every week by colonoscopic investigation after induction. Mice with moderately inflamed colons [endoscopic index of colitis severity (EICS) index 4-8] or marked inflamed colons (EICS 9-13) were randomly assigned to either a <<low dose>> PDT group or no treatment group (disease control group). Unmanipulated age-matched SCID mice served as negative controls.
(§1) PDT was performed with a photosensitizing agent (δ-ALA) dose of 15 mg/kg, administered 3 hours before the illumination with the energy dose of 10 J/cm^2 per gastrointestinal tract tissue.
The illumination time was 100 s, the wavelength 635 nm.
(§2) Mice were monitored by colonoscopy at day 3 and weeks 1, 2, 3 and 4 post PDT treatment. In addition to parameters investigated in example 1, CD4 immunostaining and apoptosis detection were performed.

IFN-γ = experiment: Expression index of IFN-γ mRNA in illuminated colon, quantitative real-time PCR; format: in vivo, BALB/c mice
From the text: (§3) The third portion was used for measuring the expression of the molecules involved in immune and inflammatory phenomenons in the colonic mucosa (cytokines, chemokines). For RNA extraction this portion was conserved in RNA-later solution (Ambion Inc. Austin, USA) until processing. RNA was extracted from the tissues using a Rneasy Mini kit (Qiagen, Hombrechtikon, Switzerland). RNA samples were submitted to a second or third DNAse treatment in order to get rid of all traces of genomic DNA. Quality of the RNA samples was tested on agarose gels and absence of genomic DNA was tested by PCR using primers specific for a house keeping gene, glyceraldehydes-3-phosphate-dehydrogenase (GAPDH). RNA preparations were then submitted to reverse transcription using the ThermoScript™ RT-PCR system (Invitrogen, Basel, Switzerland) using an Oligo-dT as primer. Quantification of reverse transcripted messenger RNA for GAPDH, the inducible nitric oxide synthetase (iNOS), interferon-gamma (IFN-γ), interleukin-1 receptor antagonist (IL1-Ra), tumor necrosis factor alpha (TNF-α), interleukin 6 (IL-6), tumor growth factor beta (TGF-13) and interleukin10 (IL-10) was performed by quantitative real-time PCR in a BioRad Real-time PCR iCycler using specific pairs of primers and the green fluorescence dye SYBR—Green®. GAPDH was used to normalize quantifications within each individual sample (normalization of the number of mRNA copies for the gene of interest/1 million mRNA copies of the GAPDH gene of the investigated mouse). Expression of each gene of interest was finally calculated as an expression index (normalized number of mRNA copies of each manipulated mice/normalized number of mRNA copies of the unmanipulated mice) and the results are given as mean values of the expression index (unmanipulated mean mice index=1). Furthermore one kidney and a part of the liver were collected for pathological analysis to exclude hepato- or nephrotoxicity.

iNOS = experiment: Expression index of iNOS mRNA in illuminated colon, quantitative real-time PCR; format: in vivo, BALB/c mice; details: high dose PDT: 50 J/cm^2, 60 mg δ-ALA; 74 h; unmanipulated mice index=1
From the text: as §3, with “RNA preparations were then submitted to reverse transcription using the ThermoScript™ RT-PCR system (Invitrogen, Basel, Switzerland) using an Oligo-dT as primer.” left out, “Expression of each gene of interest was finally calculated as an expression index (normalized number of mRNA copies of each manipulated mice/normalized number of mRNA copies of the unmanipulated mice) and the results are given as mean values of the expression index (unmanipulated mean mice index=1). Furthermore one kidney and a part of the liver were collected for pathological analysis to exclude hepato- or nephrotoxicity.” left out

[2] = system: CD4+ cells in the colonic mucosa; experiment: Anti-CD4 immunostaining of treated colonic mucosa; format: in vivo, SCID mice; details: low dose PDT, 3 days after PDT, compared to DC mice
Experimental: as §1, §2
For anti-CD4 immunostaining, frozen sections were extensively dried, fixed with 100% acetone at 4° C. and rehydrated in PBS. Sections were then blocked for 20 minutes with a PBS solution containing 0.1% BSA (Sigma-Aldrich Inc., St-Louis, USA) and 0.5% NMS. CD4 detection was performed by incubation of the sections for 1 hour with a cell culture supernatant originating from an hybridoma secreting rat anti-mouse CD4 (clone H129.19). After washing with PBS, an Alexa Fluor 488-conjugated goat anti-rat IgG at a final concentration of 5 ng/ml in PBS 0.1% BSA, 1% NMS was used as secondary antibody and incubated for 45 minutes before two last PBS washings. All incubations were done at room temperature unless specified otherwise.

IL-1Ra = experiment: Expression index of IL-1Ra mRNA in illuminated colon, quantitative real-time PCR; format: in vivo, BALB/c mice
From the text: as §3

[3] = system: CD4+ cells in the inflamed colonic mucosa; experiment: Annexin-V mediated detection of apoptosis in CD4+ cells of colonic mucosa; format: in vivo, SCID mice; details: time zero reference 1.8±0.2%
Experimental: as §1
For Annexin-V mediated detection of apoptosis mice were sacrificed 4 or 20 hours after low dose PDT later. Untreated inflamed mice were also sacrificed and were considered as the time zero reference. In order to extract cells from the colonic mucosa, treated portions of the colons, or equivalent portions in untreated mice, were collected, cut into small pieces and individually incubated for 20 minutes at room temperature under constant agitation in a PBS solution containing 5 mM EDTA. […] Cells were then analyzed through a FACscan flowcytometer (Becton Dickinson), once in the absence of propidium iodide (PI) and once in the presence of PI in order to identify population of viable cells. The percentage of Annexin-V^+ cells within the CD4^+ population was finally calculated based on a forward and side scatter gated population consisting of viable cells (>98% of PI negative cells) and containing the most percentage of CD4^+ cells (>80%).

[4] = high dose PDT: 50 J/cm^2, 60 mg δ-ALA, 74 h, unmanipulated mice index=1
[5] = low dose PDT 15 mg/kg δ-ALA, 10 J/cm2
[6] = low dose PDT 5J/cm2, 15 mg/kg δ-ALA

In the case of `NCC(=O)CCC(=O)O` [δ-ALA, 5-aminolevulinic acid], the “histology of illuminated portion of colon” value ([1]; PDT-treated mice, illuminated portion) is reported as “a normal mucosa with low cellular infiltration”, the “histological score of inflammation” value ([1]; marked inflamed mice, 3 days after PDT, DC mice 7.7±0.6, P=0.0250) is reported as 4.6±0.8 and the “expression index IFN-γ” value (IFN-γ; [4]) is reported as 5.36±1.67. The “expression index IFN-γ” value (IFN-γ; [5]) was 0.93±0.09, the “expression index IFN-γ” value (IFN-γ; [6]) was 1.92±0.50 and the “expression index iNOS” value (iNOS) was 27.78±10.47. The “number of CD4+ cells in the treated colonic mucosa” value [2] was “obvious diminution in the number of CD4^+ cells”, the “expression index IL-1Ra” value (IL-1Ra; [4]) was 4.54±1.21 and the “expression index IL-1Ra” value (IL-1Ra; [5]) was 0.94±0.08. For the same compound, the “expression index IL-1Ra” value (IL-1Ra; [6]) was 1.14±0.11, the “percentage of Annexin V+ cells in the CD4+/PI- population” value ([3]; 4 hours after low dose PDT, P=0.0043) was 3.0±0.3% and the “percentage of Annexin V+ cells in the CD4+/PI- population” value ([3]; 20 hours after low dose PDT, P=0.0012) was 4.6±0.5%.
